Source: publication PMC4715021, “^177Lu-labelled macrocyclic bisphosphonates for targeting bone metastasis in cancer treatment” (EJNMMI Research, 2016)
Several values for one entry are separate records, joined by “and”; a condition that tells them apart may be missing. Equal entries are not always repeated.

Experiments:
[1] = Ex vivo biodistribution of 177Lu-complexes in Wistar rats; settings: for Biodistribution of radioactivity, Adipose tissue / Biodistribution of radioactivity, Adrenal gland / Biodistribution of radioactivity, Blood / Biodistribution of radioactivity, Brain / Biodistribution of radioactivity, Femur / Biodistribution of radioactivity, Harderian gland / Biodistribution of radioactivity, Heart / Biodistribution of radioactivity, Kidneys / Biodistribution of radioactivity, Liver / Biodistribution of radioactivity, Lung / Biodistribution of radioactivity, Muscle / Biodistribution of radioactivity, Pancreas / Biodistribution of radioactivity, Spleen / Biodistribution of radioactivity, Testes / Biodistribution of radioactivity, Thymus: i.v.
Description: (§1) The experiments were realized corresponding to the German animal welfare regulations and institutional guidelines and with the permission of the local animal research committee at the Landesdirektion, Dresden. All experimental procedures are following the guidelines of the European Convention for the Protection of Vertebrate Animals used for Experimental and other Scientific Purposes (ETS No. 123). Male Wistar rats weighing 157.69 ± 17.10 g (mean ± SD, N = 35) were purchased from Unilever (HsdCpb:WU, Harlan Winkelmann, Borchen, Germany). Anesthetization was initiated and maintained by desflurane, and animals were put in the supine position and placed on a heating pad to maintain body temperature. A needle catheter was used for administration of the tracers in the tail vein. A second catheter was introduced into the right femoral artery for the extraction of blood samples for metabolite analysis, which was routinely done during SPECT/CT measurements.
The male Wistar rats received a short-term anesthetization by desflurane inhalation. Mean activities of 2.36 ± 0.27 MBq/kg of the ^177Lu-labelled tracers in isotonic saline were injected in a volume of 0.5 mL in the tail vein, with the following specific details: [^177Lu]citrate: 2.56 ± 0.07 MBq/kg, 128.58 body weight (BW, g), n = 4 (g); [^177Lu]BPAMD: 2.33 ± 0.11 MBq/kg, 159.41 BW (g), n = 4 (g); [^177Lu]BPAPD: 2.58 ± 0.24 MBq/kg, 156.38 BW (g), n = 4 (g); [^177Lu]BPPED: 2.27 ± 0.25 MBq/kg, 153.43 BW (g), n = 4 (g); [^177Lu]NO2AP^BP: 2.52 ± 0.25 MBq/kg, 173.82 BW (g), n = 4 (g); [^177Lu]DOTA(M^BP)2: 1.80 ± 0.10 MBq/kg, 181.64 BW (g), n = 4 (g); [^177Lu]DO2A(P^BP)2: 2.46 ± 0.15 MBq/kg, 150.60 BW (g), n = 4 (g). The compounds [^177Lu]DOTA(M^BP)2, [^177Lu]BPPED, and [^177Lu]BPAMD were further chosen for a biodistribution study after 8 days p.i. A mean activity of 19.0 ± 2.5 MBq/kg was injected. Animals were sacrificed after 5 min, 60 min, and 8 days p.i. Organs of interest were excised rapidly and weighed, and the ^177Lu activity was determined with a Wallac WIZARD automatic gamma counter (PerkinElmer, Germany) and decay corrected. The distribution data are expressed in %ID or are normalized to the BW as standard uptake value (SUV), which was calculated with the formula: SUV = (activity per g tissue)/(injected activity) × BW. The skeleton weight was calculated using the following: skeleton weight = 9.66 + 0.0355 × BW, and the total activities associated with the skeleton were calculated by using the activity concentration in the femur and the total skeleton weight.

[2] = Metabolite analysis and in vivo stability, arterial blood and urine samples; parameters: species or system Wistar rats
Description: as §1
Arterial blood plasma samples were taken during SPECT/CT examinations after 1, 3, 5, 10, 20, 30, 60, and 120 min. p.i., and the in vivo metabolism of [^177Lu]BPAMD, [^177Lu]BPAPD, [^177Lu]BPPED, [^177Lu]NO2AP^BP, [^177Lu]DOTA(M^BP)2, and [^177Lu]DO2A(P^BP)2 was analyzed. Plasma was separated by centrifugation (3 min, 11,000×g) followed by precipitation of the plasma proteins with ice-cold methanol (1.5 parts per 1 part plasma) and centrifugation (3 min, 11,000×g). The supernatants were analyzed by radio-TLC and HPLC using the abovementioned methods for quality control. Additionally, urine samples were treated in the same way prior radio-TLC and radio-HPLC analysis.

[3] = 5 min p.i., mean of four animals
[4] = 60 min p.i., mean of four animals
[5] = 8 days p.i., mean for five animals

O=C(O)CN1CCN(CC(=O)O)CCN(CC(=O)NC(P(=O)(O)O)P(=O)(O)O)CCN(CC(=O)O)CC1 [[^177Lu]BPAMD, metal not drawn]
Ratio Bone/Adipose tissue ([1]; 5 min p.i.): 8.0
Ratio Bone/Adrenal gland ([1]; 5 min p.i.): 8.4
Ratio Bone/Blood ([1]; 5 min p.i.): 3.7
Ratio Bone/Brain ([1]; 5 min p.i.): 83.9
Ratio Bone/Harderian gland ([1]; 5 min p.i.): 9.3
Ratio Bone/Heart ([1]; 5 min p.i.): 9.3
Ratio Bone/Kidneys ([1]; 5 min p.i.): 0.7
Ratio Bone/Liver ([1]; 5 min p.i.): 12.9
Ratio Bone/Lung ([1]; 5 min p.i.): 5.5
Ratio Bone/Muscle ([1]; 5 min p.i.): 17.7
Ratio Bone/Pancreas ([1]; 5 min p.i.): 10.8
Ratio Bone/Spleen ([1]; 5 min p.i.): 9.1
Ratio Bone/Testes ([1]; 5 min p.i.): 13.4
Ratio Bone/Thymus ([1]; 5 min p.i.): 11.6
Biodistribution of radioactivity, Adipose tissue [1, 3]: 0.42 SUV
Biodistribution of radioactivity, Adrenal gland [1, 3]: 0.40 SUV
Biodistribution of radioactivity, Blood [1, 3]: 0.90 SUV
Biodistribution of radioactivity, Brain [1, 3]: 0.04 SUV
Biodistribution of radioactivity, Femur [1, 3]: 3.36 SUV
Biodistribution of radioactivity, Harderian gland [1, 3]: 0.36 SUV
Biodistribution of radioactivity, Heart [1, 3]: 0.36 SUV
Biodistribution of radioactivity, Kidneys [1, 3]: 4.53 SUV
Biodistribution of radioactivity, Liver [1, 3]: 0.26 SUV
Biodistribution of radioactivity, Lung [1, 3]: 0.61 SUV
Biodistribution of radioactivity, Muscle [1, 3]: 0.19 SUV
Biodistribution of radioactivity, Pancreas [1, 3]: 0.31 SUV
Biodistribution of radioactivity, Spleen [1, 3]: 0.37 SUV
Biodistribution of radioactivity, Testes [1, 3]: 0.25 SUV
Biodistribution of radioactivity, Thymus [1, 3]: 0.29 SUV
Ratio Bone/Adipose tissue ([1]; 60 min p.i.): 134.5
Ratio Bone/Adrenal gland ([1]; 60 min p.i.): 109.6
Ratio Bone/Blood ([1]; 60 min p.i.): 135.6
Ratio Bone/Brain ([1]; 60 min p.i.): 613.4
Ratio Bone/Harderian gland ([1]; 60 min p.i.): 118.8
Ratio Bone/Heart ([1]; 60 min p.i.): 210.1
Ratio Bone/Kidneys ([1]; 60 min p.i.): 14.0
Ratio Bone/Liver ([1]; 60 min p.i.): 127.5
Ratio Bone/Lung ([1]; 60 min p.i.): 69.1
Ratio Bone/Muscle ([1]; 60 min p.i.): 251.7
Ratio Bone/Pancreas ([1]; 60 min p.i.): 136.4
Ratio Bone/Spleen ([1]; 60 min p.i.): 68.2
Ratio Bone/Testes ([1]; 60 min p.i.): 179.1
Ratio Bone/Thymus ([1]; 60 min p.i.): 58.6
Biodistribution of radioactivity, Adipose tissue [1, 4]: 0.04 SUV
Biodistribution of radioactivity, Adrenal gland [1, 4]: 0.04 SUV
Biodistribution of radioactivity, Blood [1, 4]: 0.04 ± 0.01 SUV and 0.04 SUV
Biodistribution of radioactivity, Brain [1, 4]: 0.01 SUV
Biodistribution of radioactivity, Femur [1, 4]: 4.84 ± 0.44 SUV and 4.84 SUV
Biodistribution of radioactivity, Harderian gland [1, 4]: 0.04 SUV
Biodistribution of radioactivity, Heart [1, 4]: 0.02 SUV
Biodistribution of radioactivity, Kidneys [1, 4]: 0.35 SUV
Biodistribution of radioactivity, Liver [1, 4]: 0.04 SUV
Biodistribution of radioactivity, Lung [1, 4]: 0.07 SUV
Biodistribution of radioactivity, Muscle [1, 4]: 0.02 SUV
Biodistribution of radioactivity, Pancreas [1, 4]: 0.04 SUV
Biodistribution of radioactivity, Spleen [1, 4]: 0.07 SUV
Biodistribution of radioactivity, Testes [1, 4]: 0.03 SUV
Biodistribution of radioactivity, Thymus [1, 4]: 0.08 SUV
Ratio Bone/Adipose tissue ([1]; 8 days p.i.): 1158
Ratio Bone/Adrenal gland ([1]; 8 days p.i.): 547
Ratio Bone/Blood ([1]; 8 days p.i.): 6703
Ratio Bone/Brain ([1]; 8 days p.i.): 1405
Ratio Bone/Harderian gland ([1]; 8 days p.i.): 48
Ratio Bone/Heart ([1]; 8 days p.i.): 885
Ratio Bone/Kidneys ([1]; 8 days p.i.): 66
Ratio Bone/Liver ([1]; 8 days p.i.): 203
Ratio Bone/Lung ([1]; 8 days p.i.): 634
Ratio Bone/Muscle ([1]; 8 days p.i.): 37
Ratio Bone/Pancreas ([1]; 8 days p.i.): 851
Ratio Bone/Spleen ([1]; 8 days p.i.): 257
Ratio Bone/Testes ([1]; 8 days p.i.): 1136
Ratio Bone/Thymus ([1]; 8 days p.i.): 787
Biodistribution of radioactivity, Adipose tissue [1, 5]: 0.004 SUV
Biodistribution of radioactivity, Adrenal gland [1, 5]: 0.009 SUV
Biodistribution of radioactivity, Blood [1, 5]: 0.001 SUV
Biodistribution of radioactivity, Brain [1, 5]: 0.004 SUV
Biodistribution of radioactivity, Femur [1, 5]: 5.039 SUV
Biodistribution of radioactivity, Harderian gland [1, 5]: 0.105 SUV
Biodistribution of radioactivity, Heart [1, 5]: 0.006 SUV
Biodistribution of radioactivity, Kidneys [1, 5]: 0.076 SUV
Biodistribution of radioactivity, Liver [1, 5]: 0.025 SUV
Biodistribution of radioactivity, Lung [1, 5]: 0.008 SUV
Biodistribution of radioactivity, Muscle [1, 5]: 0.136 SUV
Biodistribution of radioactivity, Pancreas [1, 5]: 0.006 SUV
Biodistribution of radioactivity, Spleen [1, 5]: 0.020 SUV
Biodistribution of radioactivity, Testes [1, 5]: 0.004 SUV
Biodistribution of radioactivity, Thymus [1, 5]: 0.006 SUV
Total skeletal retention ([1]; 8 days p.i., calculated from femur activity concentration and total skeleton weight): constant over 8 days
Total skeleton retention ([1]; after 60 min, calculated from femur activity concentration and total skeleton weight): 46.7 ± 5.3 %ID
Blood half-life of the slow component (t1/2(β)) ([2]; arterial blood, single intravenous injection): 23.3 min
Metabolization in blood samples (radio-HPLC and TLC) ([2]; within a period of 120 min): no evidence of any metabolization
